According to patent US8592407B2, “Pyrrolo[2,1-c][1,4] benzodiazepine derivatives with dithiocarbamate side chains and process for the preparation thereof” (Council of Scientific & Industrial Research, priority 2008, dated 2013):

Columns and labels:
[1] = test system: IGROV1; experiment: NCI in vitro cytotoxicity (SRB); type: cell-based; conditions: Homo sapiens, IGROV-1
[2] = test system: SK-OV-3; experiment: NCI in vitro cytotoxicity (SRB); type: cell-based; conditions: Homo sapiens; Ovarian SK-OV-3; 48 h exposure
[3] = test system: MALME-3M; experiment: NCI in vitro cytotoxicity (SRB); type: cell-based; conditions: Homo sapiens
[4] = test system: COLO 205; experiment: NCI in vitro cytotoxicity (SRB); type: cell-based; conditions: Homo sapiens; Colon COLO 205; 48 h exposure
[5] = test system: Breast panel; experiment: NCI screen, panel average; type: cell-based, human; conditions: for Log10 GI50 (concentration in mol/L): Breast, average of six to eight cell lines; for LC50: Homo sapiens, read-out: Log10 LC50 (concentration in mol/L causing 50% lethality) (converted)
[6] = test system: CAKI-1; experiment: NCI in vitro cytotoxicity (SRB); type: cell-based; conditions: Homo sapiens; Renal CAKI-1; 48 h exposure
[7] = test system: K-562; experiment: NCI in vitro cytotoxicity (SRB); type: cell-based; conditions: Homo sapiens, K562; Leukemia K-562; 48 h exposure
[8] = test system: BT-549; experiment: NCI in vitro cytotoxicity (SRB); type: cell-based; conditions: Homo sapiens; Breast BT-549; 48 h exposure
[9] = test system: OVCAR-8; experiment: NCI in vitro cytotoxicity (SRB); type: cell-based; conditions: Homo sapiens
[10] = test system: MCF7; experiment: NCI in vitro cytotoxicity (SRB); type: cell-based; conditions: Homo sapiens
[11] = test system: RXF 393; experiment: NCI in vitro cytotoxicity (SRB); type: cell-based; conditions: Homo sapiens; Renal RXF 393; 48 h exposure
[12] = test system: SR; experiment: NCI in vitro cytotoxicity (SRB); type: cell-based; conditions: Homo sapiens
[13] = test system: Prostate panel; experiment: NCI screen, panel average; type: cell-based, human; conditions: for CC50: Homo sapiens, read-out: Log10 LC50 (concentration in mol/L causing 50% lethality) (converted); for Log10 GI50 (concentration in mol/L): Prostate, average of six to eight cell lines
[14] = test system: SK-MEL-28; experiment: NCI in vitro cytotoxicity (SRB); type: cell-based; conditions: Homo sapiens; Melanoma SK-MEL-28; 48 h exposure
[15] = test system: A549/ATCC; experiment: NCI in vitro cytotoxicity (SRB); type: cell-based; conditions: Homo sapiens; Non-smallcell lung A549/ATCC; 48 h exposure
[16] = test system: NCI-H23; experiment: NCI in vitro cytotoxicity (SRB); type: cell-based; conditions: Homo sapiens; Non-smallcell lung NCI-H23; 48 h exposure
[17] = test system: sixty human tumour cell lines; conditions: mean over human tumour cell lines
Experimental: For each compound, dose response curves for each cell line were measured at a minimum of five concentrations at 10 fold dilutions. A protocol of 48 h continuous drug exposure was used and a sulforhodamine B (SRB) protein assay was used to estimate cell viability or growth. The concentration causing 50% cell growth inhibition (G150), total cell growth inhibition (TGI 0% growth) and 50% cell death (LC50, −50% growth) compared with the control was calculated.

[18] = test system: SK-MEL-5; experiment: NCI in vitro cytotoxicity (SRB); type: cell-based; conditions: Homo sapiens; Melanoma SK-MEL-5; 48 h exposure
[19] = test system: MDA-MB-435; experiment: NCI in vitro cytotoxicity (SRB); type: cell-based; conditions: Homo sapiens; Breast MDA-MB-435; 48 h exposure
[20] = test system: A498; experiment: NCI in vitro cytotoxicity (SRB); type: cell-based; conditions: Homo sapiens; Renal A498; 48 h exposure
[21] = test system: MDA-MB-; experiment: NCI in vitro cytotoxicity (SRB); type: cell-based; conditions: Homo sapiens; Breast MDA-MB-; 48 h exposure
[22] = test system: Ovarian panel; experiment: NCI screen, panel average; type: cell-based, human; conditions: for LC50 (50% lethal concentration): Homo sapiens, read-out: Log10 LC50 (concentration in mol/L causing 50% lethality) (converted); for Log10 GI50 (concentration in mol/L): Ovarian, average of six to eight cell lines
[23] = test system: M14; experiment: NCI in vitro cytotoxicity (SRB); type: cell-based; conditions: Homo sapiens; Melanoma M14; 48 h exposure
[24] = test system: T-47D; experiment: NCI in vitro cytotoxicity (SRB); type: cell-based; conditions: Homo sapiens, T47D; Breast T-47D; 48 h exposure
[25] = test system: 786-0; experiment: NCI in vitro cytotoxicity (SRB); type: cell-based; conditions: Homo sapiens; Renal 786-0; 48 h exposure
[26] = test system: calf thymus DNA (CT-DNA); experiment: Thermal denaturation studies with duplex-form calf thymus DNA; type: binding; conditions: [PBD]:[DNA] 1:5, CT-DNA 100 μM, ligand 20 μM, pH 7.00; for ΔTm after incubation at 37° C. for 0 h: 0 h at 37° C.; for ΔTm after incubation at 37° C. for 18 h: 18 h at 37° C.
Experimental: Compounds have been subjected to thermal denaturation studies with duplex-form calf thymus DNA (CT-DNA) using an modification of a reported procedure (Newman, M. S. Carcinog-compr. Surv. 1976, 1, 203; (b) Hecht, S. S.; Loy, M.; Hoffman, Carcinog-compr. Surv. 1976, 1, 325). Working solutions in aqueous buffer (10 mM NaH2PO4/Na2HPO4, 1 mM Na2EDTA, pH 7.00+0.01) containing CT-DNA (100 μm in phosphate) and the PBD (20 μm) have been prepared by addition of concentrated PBD solutions in DMSO to obtain a fixed [PBD]/[DNA] molar ratio of 1:5. The DNA−PBD solutions have been incubated at 37° C. for 0 and 18 h prior to analysis. Samples have been monitored at 260 nm using a Beckman DU-800 spectrophotometer fitted with high performance temperature controller, and heated at 1° C. min^−1
in the 40-110° C. range. DNA helix[…]coil transition temperatures (Tm) have been obtained from the maxima in the d(A260)/dT derivative plots. Drug-induced alterations in DNA melting behavior are given by: ΔTm=Tm(DNA+PBD)−Tm (DNA alone), where the Tm value for the PBD-free CT-DNA is 69.1±0.01.

[27] = test system: NCI-H460; experiment: NCI in vitro cytotoxicity (SRB); type: cell-based; conditions: Homo sapiens; Non-smallcell lung NCI-H460; 48 h exposure
[28] = test system: HL-60(TB); experiment: NCI in vitro cytotoxicity (SRB); type: cell-based; conditions: Homo sapiens; Leukemia HL-60(TB); 48 h exposure
[29] = test system: SN12C; experiment: NCI in vitro cytotoxicity (SRB); type: cell-based; conditions: Homo sapiens; Renal SN12C; 48 h exposure
[30] = test system: CCRF-CEM; experiment: NCI in vitro cytotoxicity (SRB); type: cell-based; conditions: Homo sapiens; Leukemia CCRF-CEM; 48 h exposure
[31] = test system: Ovary OVCAR-5; conditions: human
[32] = test system: Colon 502713; conditions: human
[33] = Melanoma MALME-3M, 48 h exposure

Compound COc1cc2c(cc1OCCCN1CCN(C(=S)SCCC(C#N)(c3ccccc3)c3ccccc3)CC1)N=C[C@@H]1CCCN1C2=O [Compound 12b, 3-cyano-3,3-diphenylpropyl 4-(3-[(11aS)-7-(methyloxy)-5-oxo-2,3,5,11a-tetrahydro-1H-benzo[e]pyrrolo[1,2-a][1,4]diazepin-8-yl]oxypropyl)hexahydro-1-pyrazinecarbodithioate] has a GI50 ([1]; Ovarian IGROV1, 48 h exposure) of 0.3 µM, a GI50 ([1]; ovarian IGROV1) of 0.3 µM and a GI50 [2] of 2.69 µM. The GI50 [3, 33] was 0.93 µM, the GI50 ([3]; melanoma MALME-3M) was 0.93 µM and the GI50 [4] was 1.3 µM. For the same compound, the “Log10 GI50 (concentration in mol/L)” value [5] was −6.13 mol/L, the LC50 [5] was 37.2 µM and the GI50 [6] was 0.3 µM. For the same compound, the GI50 [7] was 0.26 µM, the GI50 [8] was 0.92 µM and the GI50 ([9]; Ovarian OVCAR-8, 48 h exposure) was 0.99 µM. For the same compound, the GI50 ([9]; ovarian OVCAR-8) was 0.99 µM, the GI50 ([10]; MCF7, breast MCF-7) was 0.33 µM and the GI50 ([10]; Breast MCF7, 48 h exposure) was 0.33 µM. For the same compound, the GI50 [11] was 0.19 µM, the GI50 ([12]; Leukemia SR, 48 h exposure) was 0.18 µM and the GI50 ([12]; leukemia SR) was 0.18 µM. For the same compound, the CC50 [13] was 2.4 µM, the “Log10 GI50 (concentration in mol/L)” value [13] was −6.51 mol/L and the GI50 [14] was 1.52 µM. For the same compound, the GI50 [15] was 1.22 µM, the GI50 [16] was 1.4 µM and the “Log10GI50 mean graph midpoint (MG_MID)” value [17] was −6.15. For the same compound, the “Log10LC50 mean graph midpoint (MG_MID)” value [17] was −4.96, the “Log10TGI mean graph midpoint (MG_MID)” value [17] was −5.67 and the GI50 [18] was 1.18 µM. It also gave a GI50 [19] of 0.55 µM, a GI50 [20] of 0.91 µM and a GI50 [21] of 1.41 µM. The LC50 (50% lethal concentration) [22] was 18.6 µM, the “Log10 GI50 (concentration in mol/L)” value [22] was −6.03 mol/L and the GI50 [23] was 1.17 µM. The GI50 [24] was 0.57 µM, the GI50 [25] was 1.06 µM and the “ΔTm after incubation at 37° C. for 0 h” value [26] was 2.0 °C. The “ΔTm after incubation at 37° C. for 18 h” value [26] was 4.0 °C, the GI50 [27] was 0.77 µM and the GI50 [28] was 0.25 µM. It also gave a GI50 [29] of 0.64 µM and a GI50 [30] of 0.23 µM.

COc1cc2c(cc1OCCCCN1CCN(C(=S)SCCC(C#N)(c3ccccc3)c3ccccc3)CC1)N=C[C@@H]1CCCN1C2=O [Compound 12c, 3-cyano-3,3-diphenylpropyl 4-(4-[(11aS)-7-(methyloxy)-5-oxo-2,3,5,11a-tetrahydro-1H-benzo[e]pyrrolo[1,2-a][1,4]diazepin-8-yl]oxybutyl)hexahydro-1-pyrazinecarbodithioate] was tested, and the GI50 ([1]; Ovarian IGROV1, 48 h exposure) was 0.42 µM, the Preliminary in vitro cytotoxicity data [31] was 24% and the GI50 [2] was 2.96 µM. The GI50 [3, 33] was 1.36 µM, the GI50 [4] was 1.4 µM and the “Log10 GI50 (concentration in mol/L)” value [5] was −6.02 mol/L. The LC50 [5] was 66.1 µM, the GI50 [6] was 0.59 µM and the GI50 [7] was 3.29 µM. For the same compound, the GI50 [8] was 1.42 µM, the GI50 ([9]; Ovarian OVCAR-8, 48 h exposure) was 1.59 µM and the GI50 ([10]; Breast MCF7, 48 h exposure) was 0.43 µM. It also gave a GI50 [11] of 0.41 µM, a GI50 ([12]; Leukemia SR, 48 h exposure) of 0.25 µM and a CC50 [13] of 7.24 µM. The “Log10 GI50 (concentration in mol/L)” value [13] was −5.99 mol/L, the GI50 [14] was 1.75 µM and the GI50 [15] was 1.61 µM. The GI50 [16] was 1.68 µM, the “Log10GI50 mean graph midpoint (MG_MID)” value [17] was −5.98 and the “Log10LC50 mean graph midpoint (MG_MID)” value [17] was −4.48. The “Log10TGI mean graph midpoint (MG_MID)” value [17] was −5.28, the Preliminary in vitro cytotoxicity data [32] was 75% and the GI50 [18] was 1.11 µM. The GI50 [19] was 1.04 µM, the GI50 [20] was 1.19 µM and the GI50 [21] was 1.53 µM. For the same compound, the LC50 (50% lethal concentration) [22] was 55 µM, the “Log10 GI50 (concentration in mol/L)” value [22] was −5.82 mol/L and the GI50 [23] was 1.25 µM. The GI50 [24] was 0.57 µM, the GI50 [25] was 1.28 µM and the “ΔTm after incubation at 37° C. for 0 h” value [26] was 2.0 °C. For the same compound, the “ΔTm after incubation at 37° C. for 18 h” value [26] was 2.1 °C, the GI50 [27] was 1.25 µM and the GI50 [28] was 0.32 µM. It also gave a GI50 [29] of 1.16 µM and a GI50 [30] of 0.53 µM.
